# Test results from US11214803B2, “Modulators of YAP1 expression” (Ionis Pharmaceuticals, Inc., priority 2019, dated 2022).
# Marks after values point to notes of the source that are not given here. Strand notation (5' to 3'): a small letter for the sugar, then the base; units joined by * are phosphorothioate-linked, units joined directly phosphodiester-linked; [ ] holds rarer units or linkages, { } end groups; capitals alone tell only the bases. k = constrained ethyl (cEt); [5mC] = 5-methylcytosine; d = 2'-deoxy (DNA)
# System: Yap1 mRNA
# Test: Antisense inhibition of human Yap1 in A-431 cells by cEt gapmers, single dose (Example 2, RTS4814)
# Assay type: cell-based
# Outline: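 Each 16-nucleoside gapmer (ten-deoxy gap, three-cEt wings) is tested once at 2,000 nM in A-431 cells by free uptake. Yap1 mRNA after about 48 hours is measured by quantitative RT-PCR and expressed relative to untreated control.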
# [1] = A-431 cells, 5,000 cells per well, free uptake, 2,000 nM modified oligonucleotide, approx. 48 hours, RTS4814, normalized to RIBOGREEN, Table 4, asterisk (*) = targets amplicon region of primer probe set
# [2] = Table 32, Yap1 mRNA, percent of untreated control, 3-10-3 cEt gapmers targeting SEQ ID NO.: 1, and 2
# [3] = Table 5, A-431 cells, 5,000 cells per well, free uptake, 2,000 nM modified oligonucleotide, approx. 48 hours, RTS4814, normalized to RIBOGREEN, Yap1 mRNA relative to untreated control cells
# [4] = Table 22, Yap1 mRNA as percent of untreated control, 3-10-3 cEt gapmers, single dose
# [5] = Table 25, Yap1 mRNA as percent of untreated control, 3-10-3 cEt gapmers targeting SEQ ID NO.: 1, and 2
# [6] = Table 6, A-431 cells, 5,000 cells per well, free uptake, 2,000 nM modified oligonucleotide, approx. 48 hours, RTS4814, normalized to RIBOGREEN, Yap1 mRNA relative to untreated control cells
# [7] = Table 24, Yap1 mRNA as percent of untreated control, 3-10-3 cEt gapmers targeting SEQ ID NO.: 1, and 2
# [8] = Table 20, Yap1 mRNA, percent of untreated control, 3-10-3 cEt gapmers targeting SEQ ID NO.: 1 and 2
# [9] = Table 23, Yap1 mRNA as percent of untreated control, 3-10-3 cEt gapmers, single dose
# [10] = Table 33, Yap1 mRNA, percent of untreated control, 3-10-3 cEt gapmers targeting SEQ ID NO.: 1, and 2
# [11] = Yap1 mRNA as percent of untreated control, A-431 cells, 3-10-3 cEt gapmers targeting SEQ ID NO.: 1, and 2, Table 30
substance,measurement,setting,value
716394 (kG*kT*kT*dG*d[5mC]*dT*dG*d[5mC]*dA*dG*dT*d[5mC]*dG*k[5mC]*kA*kT; antisense) [Compound 716394],YAP1 (% UTC),[1],120 % UTC
1075090 (kG*k[5mC]*kT*dT*dA*dT*dA*dA*dT*d[5mC]*dT*dT*dT*k[5mC]*kA*kG; antisense) [compound 1075090],YAP1 (% UTC),[2],9 % UTC
716416 (kA*kA*kG*dG*dA*dT*dG*dT*d[5mC]*dA*dG*dA*dA*k[5mC]*kT*k[5mC]; antisense) [Compound 716416],YAP1 (% UTC),[3],45 % UTC
1076200 (kG*kA*kT*dT*dA*d[5mC]*dA*d[5mC]*dT*dA*dT*d[5mC]*dA*kA*kA*kA; antisense) [Compound 1076200],YAP1 (% UTC),[4],67 % UTC
716419 (kT*kT*kT*d[5mC]*d[5mC]*dG*dG*dT*dG*d[5mC]*dA*dT*dG*kT*kG*kT; antisense) [Compound 716419],YAP1 (% UTC),[3],36 % UTC
1076427 (k[5mC]*kA*kA*dA*dT*dT*dT*dA*d[5mC]*dT*dG*dA*dT*k[5mC]*kT*k[5mC]; antisense) [Compound 1076427],YAP1 (% UTC),[5],3 % UTC
1075851 (kG*k[5mC]*k[5mC]*dG*dA*dA*dT*dA*dT*dG*dG*dG*dA*kA*kA*kA; antisense) [Compound 1075851],YAP1 (% UTC),[5],70 % UTC
716408 (k[5mC]*kA*k[5mC]*dT*dG*dT*dA*dG*d[5mC]*dT*dG*d[5mC]*dT*k[5mC]*kA*kT; antisense) [Compound 716408],YAP1 (% UTC),[6],54 % UTC
1075530 (kG*kA*kA*dA*dT*d[5mC]*dG*dA*dA*dG*dG*dG*d[5mC]*kA*kA*kA; antisense) [Compound 1075530],YAP1 (% UTC),[7],30 % UTC
1075814 (kT*kA*kT*dA*dA*dA*dG*d[5mC]*dA*dG*dG*dG*d[5mC]*kA*kT*kT; antisense) [Compound 1075814],YAP1 (% UTC),[8],47 % UTC
1074475 (kA*k[5mC]*k[5mC]*dA*dA*d[5mC]*d[5mC]*d[5mC]*d[5mC]*d[5mC]*d[5mC]*d[5mC]*dA*k[5mC]*k[5mC]*kG; antisense) [Compound 1074475],YAP1 (% UTC),[5],72 % UTC
1075369 (kG*kG*kA*dG*dA*dA*dT*dA*dA*dG*d[5mC]*dA*dA*kT*k[5mC]*kA; antisense) [Compound 1075369],YAP1 (% UTC),[9],31 % UTC
1075121 (kA*kA*kA*dA*dT*dT*dA*dG*d[5mC]*d[5mC]*dT*dA*d[5mC]*k[5mC]*kA*k[5mC]; antisense) [compound 1075121],YAP1 (% UTC),"Yap1 mRNA as percent of untreated control, A-431 cells, 3-10-3 cEt gapmers targeting SEQ ID NO.: 1, and 2, Table 31",40 % UTC
1074603 (antisense kT*kT*k[5mC]*d[5mC]*dA*dG*d[5mC]*dT*dA*dA*d[5mC]*dT*d[5mC]*kA*kA*kA) [Compound 1074603],YAP1 (% UTC),[5],17 % UTC
1075880 (kA*kT*kT*dA*dA*d[5mC]*dT*dA*d[5mC]*dA*d[5mC]*d[5mC]*dA*k[5mC]*kG*kA; antisense) [Compound 1075880],YAP1 (% UTC),[4],30 % UTC
1075430 (antisense k[5mC]*kT*kT*dA*dA*d[5mC]*dT*dA*dA*d[5mC]*dT*dT*dG*kA*k[5mC]*k[5mC]) [Compound 1075430],YAP1 (% UTC),[8],96 % UTC
1075339 (kA*k[5mC]*k[5mC]*d[5mC]*dA*dA*dA*dA*dA*d[5mC]*dT*dA*dG*k[5mC]*kT*kT; antisense) [Compound 1075339],YAP1 (% UTC),[5],70 % UTC
1074826 (kA*kA*kA*dT*d[5mC]*d[5mC]*dA*d[5mC]*d[5mC]*dT*dG*dA*dG*k[5mC]*kA*k[5mC]; antisense) [Compound 1074826],YAP1 (% UTC),[7],51 % UTC
716462 (kT*kT*kA*dA*dA*d[5mC]*dT*dA*d[5mC]*d[5mC]*dA*dG*dT*kG*kA*kA; antisense) [Compound 716462],YAP1 (% UTC),[6],86 % UTC
1075219 (k[5mC]*k[5mC]*kT*dT*dA*dA*d[5mC]*dA*d[5mC]*dT*dG*dG*dT*kA*kA*kG; antisense) [compound 1075219],YAP1 (% UTC),[10],117 % UTC
1075624 (kA*kT*k[5mC]*dT*dA*dT*dA*dA*d[5mC]*d[5mC]*d[5mC]*dT*dT*kA*kT*kT; antisense) [Compound 1075624],YAP1 (% UTC),[4],91 % UTC
1074537 (antisense k[5mC]*kA*kG*dT*dA*dA*dT*dA*dG*d[5mC]*dT*d[5mC]*dT*kT*kT*k[5mC]) [Compound 1074537],YAP1 (% UTC),[9],3 % UTC
1074768 (k[5mC]*kT*kT*dA*dT*d[5mC]*d[5mC]*d[5mC]*dA*dA*dT*dG*d[5mC]*kT*kA*k[5mC]; antisense) [compound 1074768],YAP1 (% UTC),[11],11 % UTC
1074995 (antisense kA*kA*kA*dA*d[5mC]*dT*dA*dA*dA*dT*dG*dG*dA*k[5mC]*k[5mC]*kG) [compound 1074995],YAP1 (% UTC),[10],50 % UTC
1076050 (k[5mC]*kT*kT*dT*dA*dG*dA*dT*dT*dA*dA*dA*dG*kG*k[5mC]*kT; antisense) [compound 1076050],YAP1 (% UTC),[2],45 % UTC
1074920 (antisense kA*k[5mC]*kT*d[5mC]*dA*dA*dG*dT*dT*dA*d[5mC]*dA*dT*k[5mC]*k[5mC]*k[5mC]) [Compound 1074920],YAP1 (% UTC),[4],68 % UTC
1074282 (antisense k[5mC]*kG*kA*dG*dG*dG*dT*d[5mC]*dA*dA*dG*d[5mC]*d[5mC]*kT*kT*kG) [Compound 1074282],YAP1 (% UTC),[7],83 % UTC
1075114 (antisense kG*kT*kA*dT*dA*dA*dA*dT*dA*d[5mC]*d[5mC]*dA*dG*kG*kT*kA) [Compound 1075114],YAP1 (% UTC),[7],26 % UTC
1075048 (antisense kG*kT*kA*dA*dA*dA*dT*dT*dA*dG*dA*d[5mC]*dT*k[5mC]*k[5mC]*k[5mC]) [Compound 1075048],YAP1 (% UTC),[4],4 % UTC
1074227 (antisense kA*k[5mC]*kT*dG*dT*d[5mC]*dG*dA*dA*dG*dA*dT*dG*k[5mC]*kT*kG) [compound 1074227],YAP1 (% UTC),[10],10 % UTC
1074440 (kG*k[5mC]*kT*dG*dT*dG*dA*d[5mC]*dA*dT*dG*dA*dA*kG*k[5mC]*kA; antisense) [Compound 1074440],YAP1 (% UTC),[4],38* % UTC
716488 (k[5mC]*kA*kT*dT*dA*dT*dT*dA*d[5mC]*dT*d[5mC]*d[5mC]*dT*kG*kT*kA; antisense) [Compound 716488],YAP1 (% UTC),[3],67 % UTC
716532 (antisense k[5mC]*kA*kA*dG*dA*dA*dG*d[5mC]*dA*dG*dT*dT*dA*kA*kG*k[5mC]) [Compound 716532],YAP1 (% UTC),[1],70 % UTC
1074153 (antisense k[5mC]*kA*k[5mC]*dG*dG*dG*d[5mC]*d[5mC]*dG*dA*dG*dG*dT*kG*kG*kA) [Compound 1074153],YAP1 (% UTC),[9],78 % UTC
1075431 (antisense kT*kA*kA*d[5mC]*dT*dA*dA*dA*d[5mC]*dT*dG*dA*dT*kT*k[5mC]*k[5mC]) [Compound 1075431],YAP1 (% UTC),"Table 21, Yap1 mRNA, percent of untreated control, 3-10-3 cEt gapmers targeting SEQ ID NO.: 1 and 2",74 % UTC
1074416 (k[5mC]*kT*kT*dT*dA*dG*dA*dG*d[5mC]*d[5mC]*dA*dA*d[5mC]*kT*kG*kT; antisense) [compound 1074416],YAP1 (% UTC),[11],9 % UTC
716411 (kT*k[5mC]*kT*dG*d[5mC]*dT*dG*dT*dG*dA*dG*dG*dG*k[5mC]*kA*kG; antisense) [Compound 716411],YAP1 (% UTC),[6],102 % UTC
1075826 (kT*kA*kG*dG*dG*dA*dA*dA*dA*d[5mC]*d[5mC]*dA*dT*kA*kG*k[5mC]; antisense) [compound 1075826],YAP1 (% UTC),[2],23 % UTC
